Converted amounts (≈) assume the structure as drawn. “And” between values parts separate entries of the source, which are not always exact repeats. Identical values can stand only once. Like-named read-outs stand apart in the source and are kept apart here.
Key:
[1] = tested on: pneumococci; test: microbe, parasite or virus in culture; format: cell-based, S. pneumoniae
[2] = tested on: M. pneumoniae; test: microbe, parasite or virus in culture; format: cell-based; conditions: for MIC50 / MIC90: Mycoplasmoides pneumoniae
[3] = tested on: M. genitalium; format: cell-based; conditions: M. genitalium (5 isolates)
[4] = tested on: M. fermentans; format: cell-based; conditions: M. fermentans (15 isolates); for MIC50 / MIC90: Mycoplasmopsis fermentans
[5] = tested on: streptococci; test: organism not typed; format: cell-based
[6] = tested on: U. urealyticum; test: MIC testing in 10B broth (colour change); format: cell-based; conditions: U. urealyticum (10 isolates); for MIC50 / MIC90: Ureaplasma urealyticum
[7] = tested on: M. hominis; format: cell-based; conditions: M. hominis (13 isolates); for MIC50 / MIC90: Metamycoplasma hominis; for MIC50: read-out: MIC50; for MIC90: read-out: MIC90
[8] = tested on: U. parvum; test: MIC testing in 10B broth (colour change); format: cell-based, Ureaplasma parvum; conditions: U. parvum (10 isolates); for MIC50 / MIC90: Ureaplasma parvum; for MIC50: read-out: MIC50; for MIC90: read-out: MIC90
[9] = tested on: S. pneumoniae; test: microbe, parasite or virus in culture; format: cell-based
[10] = tested on: S. aureus; format: cell-based
[11] = tested on: S. pneumoniae; format: cell-based
[12] = tested on: group A streptococci; test: microbe, parasite or virus in culture; format: cell-based, S. pyogenes
[13] = tested on: N. meningitidis; test: MIC, CLSI broth microdilution, invasive isolates; format: cell-based; conditions: for % Res. / % Susc.: CLSI (M100-S19, 2009) criteria; for MIC / MIC50 / MIC90: Neisseria meningitidis
Method: Example. […] Colonization of the nasopharynx (NP) by NM can lead to invasive meningococcal disease. Chemoprophylaxis is used to eradicate NP colonization and prevent transmission to nonimmune contacts. […] 62 isolates (91.9% blood culture) of NM were collected from 29 medical centers in North and South America and Europe (1997-2008). […] Serological identification was performed for serogroups (SGs) B, C, Y and W135.

[14] = Streptococcus pneumoniae, pneumococci, L4 mutations (27)

Work on Amoxicillin Clavulanate yielded an MIC50 ([1]; pneumococci, L4 mutations (27)) of 4 µg/mL and an MIC90 ([1]; pneumococci, L4 mutations (27)) of 8 µg/mL.
In the case of `CC(=O)NC[C@H]1CN(c2ccc(N3CCOCC3)c(F)c2)C(=O)O1` [Linezolid, linezolid], the “MIC Range” value [2] is reported as 32 to 128 µg/mL, the MIC50 [2] is reported as 64 µg/mL (≈ 190 µM) and the MIC90 [2] is reported as 128 µg/mL (≈ 379 µM). For the same compound, the “MIC Range” value [3] was 4 to 128 µg/mL, the “MIC Range” value [4] was 0.5 to 4 µg/mL and the MIC50 [4] was 1 µg/mL (≈ 2.96 µM). For the same compound, the MIC90 [4] was 4 µg/mL (≈ 11.9 µM), the MIC50 [5] was 1 µg/mL (≈ 2.96 µM) and the MIC90 [5] was 2 µg/mL (≈ 5.93 µM). The “MIC 90%” value [5] was 1 µg/mL (≈ 2.96 µM), the “MIC Range” value [5] was 0.25 to 2 µg/mL and 0.5 to 2 µg/mL and the MIC50 [6] was over 256 µg/mL. The MIC90 [6] was over 256 µg/mL, the “MIC Range” value [7] was 1 to 8 µg/mL and the MIC50 [7] was 2 µg/mL (≈ 5.93 µM). For the same compound, the MIC90 [7] was 4 µg/mL (≈ 11.9 µM), the MIC50 [8] was over 256 µg/mL and the MIC90 [8] was over 256 µg/mL. It also gave an MIC90 ([9]; Streptococcus pneumoniae) of 2 µg/mL (≈ 5.93 µM).
`CC[C@H]1OC(=O)[C@H](C)[C@@H](OC2CC(C)(OC)C(O)C(C)O2)[C@H](C)[C@@H](OC2OC(C)CC(N(C)C)C2O)[C@@](C)(OC)C[C@@H](C)C(=O)[C@H](C)[C@H]2N(CCCCn3cc(-c4ccccn4)nn3)C(=O)O[C@]12C` (stereo partly shown) [Entry 20a] was tested, and the MIC [10] was 8 µg/mL (≈ 8.22 µM) and the MIC [11] was “≦0.0625 μg/mL”.
`CC1(C)S[C@@H]2[C@H](NC(=O)Cc3ccccc3)C(=O)N2[C@H]1C(=O)O` [Pen G] was tested, and the MIC50 [12] was 0.015 µg/mL (≈ 0.0449 µM), the MIC90 [12] was 0.015 µg/mL and 0.03 µg/mL and the “MIC Range” value [12] was <0.008 to 0.125 µg/mL and 0.008 to 0.015 µg/mL and <0.008 to 0.015 µg/mL and 0.015 µg/mL. For the same compound, the MIC50 [1] was 1 µg/mL (≈ 2.99 µM), the MIC90 [1] was 2 µg/mL and 4 µg/mL and the MIC range [1] was 0.015 to 8 µg/mL.
trimethoprim/sulfamethoxazole [TMP/SMX] was tested, and the nonsusceptibility [9] was 100.0%, the “MIC 50%” value ([13]; 62 N. meningitidis isolates) was 0.5 µg/mL and the “MIC 90%” value ([13]; 62 N. meningitidis isolates) was 2 µg/mL. For the same compound, the “MIC Range” value ([13]; 62 N. meningitidis isolates) was “≦0.06-4 μg/ml”, the “% Res.” value [13] was 59.7% and the “% Susc.” value [13] was 37.1%.
With `COc1c(N2C[C@@H]3CCCN[C@@H]3C2)c(F)cc2c(=O)c(C(=O)O)cn(C3CC3)c12` [Moxi] the MIC50 [12] was 0.25 µg/mL (≈ 0.623 µM), the MIC90 [12] was 0.25 µg/mL (≈ 0.623 µM) and the “MIC Range” value [12] was 0.125 to 0.25 µg/mL and 0.125 to 0.5 µg/mL. The MIC50 [1] was 0.25 µg/mL (≈ 0.623 µM), the “MIC Range” value [1] was 0.125 to 4 µg/mL and the MIC range [1] was 0.125 to 8 µg/mL.
In the case of `CN(C)c1ccc(O)c2c1C[C@H]1C[C@H]3[C@H](N(C)C)C(O)=C(C(N)=O)C(=O)[C@@]3(O)C(O)=C1C2=O` [Minocycline], the “% Susc.” value [13] is reported as 100.0%, the MIC ([13]; 62 N. meningitidis isolates) is reported as 0.008 to 0.25 µg/mL (≈ 0.0175 to 0.546 µM) and the MIC50 ([13]; 62 N. meningitidis isolates) is reported as 0.12 µg/mL (≈ 0.262 µM). For the same compound, the MIC90 ([13]; 62 N. meningitidis isolates) was 0.12 µg/mL (≈ 0.262 µM).
`CC[C@H]1OC(=O)[C@H](C)[C@@H](OC2CC(C)(OC)C(O)C(C)O2)[C@H](C)[C@@H](OC2OC(C)CC(N(C)C)C2O)[C@@](C)(OC)C[C@@H](C)C(=O)[C@H](C)[C@H]2N(CCCCn3cc(COc4c(Cl)cccc4Cl)nn3)C(=O)O[C@]12C` (stereo partly shown) [Entry 20d] was tested, and the MIC [10] was 8 µg/mL (≈ 7.47 µM) and the MIC [11] was “≦0.0625 μg/mL”.
`C[C@H]1COc2c(N3CCN(C)CC3)c(F)cc3c(=O)c(C(=O)O)cn1c23` [Levofloxacin, levofloxacin] was tested, and the “MIC Range” value [2] was 0.125 to 1 µg/mL, the MIC50 [2] was 0.5 µg/mL (≈ 1.38 µM) and the MIC90 [2] was 0.5 µg/mL (≈ 1.38 µM). For the same compound, the “MIC Range” value [3] was 0.125 to 1 µg/mL, the MIC90 [12] was 0.5 µg/mL (≈ 1.38 µM) and the “MIC Range” value [12] was 0.5 to 1 µg/mL and 0.5 µg/mL. For the same compound, the MIC50 ([12]; Streptococcus pyogenes) was 0.5 µg/mL (≈ 1.38 µM), the MIC90 ([12]; Streptococcus pyogenes) was 1 µg/mL (≈ 2.77 µM) and the MIC ([12]; Streptococcus pyogenes, read-out: MIC Range) was 0.5 to 2 µg/mL (≈ 1.38 to 5.53 µM). For the same compound, the “MIC Range” value [4] was “≦0.008-0.25 μg/mL”, the MIC50 [4] was 0.031 µg/mL (≈ 0.0858 µM) and the MIC90 [4] was 0.125 µg/mL (≈ 0.346 µM). The MIC50 [5] was 1 µg/mL (≈ 2.77 µM), the MIC90 [5] was 1 µg/mL (≈ 2.77 µM) and the “MIC 90%” value [5] was 2 µg/mL (≈ 5.53 µM). For the same compound, the “MIC Range” value [6] was 0.5 to 2 µg/mL, the MIC50 [6] was 0.5 µg/mL (≈ 1.38 µM) and the MIC90 [6] was 1 µg/mL (≈ 2.77 µM). The “MIC Range” value [7] was 0.125 to 0.5 µg/mL, the MIC50 [7] was 0.25 µg/mL (≈ 0.692 µM) and the MIC90 [7] was 0.5 µg/mL (≈ 1.38 µM). The “MIC Range” value [8] was 0.125 to 2 µg/mL, the MIC50 [8] was 0.5 µg/mL (≈ 1.38 µM) and the MIC90 [8] was 2 µg/mL (≈ 5.53 µM). For the same compound, the MIC50 [1, 14] was 1 µg/mL (≈ 2.77 µM), the MIC90 [1, 14] was 2 µg/mL (≈ 5.53 µM) and the MIC ([1]; Streptococcus pneumoniae, read-out: MIC range, pneumococci, L4 mutations (27)) was 0.5 to 16 µg/mL (≈ 1.38 to 44.3 µM). For the same compound, the “% Res.” value [13] was 0.0%, the “% Susc.” value [13] was 100.0% and the MIC ([13]; 62 N. meningitidis isolates) was 0.008 to 0.015 µg/mL (≈ 0.0221 to 0.0415 µM). It also gave an MIC50 ([13]; 62 N. meningitidis isolates) of at most 0.008 µg/mL and an MIC90 ([13]; 62 N. meningitidis isolates) of at most 0.008 µg/mL.

— US9901592B2 (priority 2008, dated 2018)
